System: Escherichia coli strain ATCC25922
Assay: standard microdilution assay to determine minimum inhibitory concentrations (MICs)
Format: cell-based
Settings: for E. coli ATCC25922 MIC: Escherichia coli strain ATCC25922, microdilution; for MIC: Escherichia coli, ATCC25922, Escherichia coli strain ATCC25922, microdilution, read-out: E. coli ATCC25922 MIC
How it was run: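 E. coli strain ATCC25922 tested per CLSI microdilution methodology (about 100 microliters per well) to find minimum inhibitory concentrations. Activity scored categorically at a 16 micrograms/ml threshold.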

N=C(N)NCCCNC(=O)c1ccc(-n2cc3cc(-c4cccc(OC[C@@H](O)CN)c4)[nH]c3nc2=O)cc1 [Compound 1399]
E. coli ATCC25922 MIC: + (a “+” indicates that the compound has an MIC value of 16 micrograms/ml or less)

NCc1ccc(-n2cc3cc(-c4cccc(S(=O)(=O)N(CCn5cccc5)C5CCNCC5)c4)[nH]c3nc2=O)cc1 [Compound 1187]
MIC: > 16 µg/mL

CC(=O)NCCc1cc(OCC(F)CN)cc(-c2cc3cn(-c4ccc(CNCCCNC(=N)N)cc4)c(=O)nc3[nH]2)c1 (stereo not shown) [Compound 2032a]
E. coli ATCC25922 MIC: − (a “−” indicates that the compound has an MIC value greater than 16 micrograms/ml)

NCc1ccc(-n2cc3cc(-c4cccc(OCCF)c4)[nH]c3nc2=O)cc1 [Compound 1168]
MIC: > 16 µg/mL

NCCCNCc1ccc(-c2cn3nc(C4CC4)[nH]c3nc2=O)cc1 [Compound 646]
MIC: > 16 µg/mL

N=C(N)NCCCNCc1ccc(-n2cc3cc(-c4cc(C(=O)NCC(F)F)cc(N5CCNCC5)c4)[nH]c3nc2=O)cc1 [Compound 970]
E. coli ATCC25922 MIC: + (a “+” indicates that the compound has an MIC value of 16 micrograms/ml or less)

N=C(N)NCCCNC(=O)c1ccc(-n2cc3cc(-c4ccc(S(=O)(=O)NC5CCNC5)cc4)[nH]c3nc2=O)cc1 (stereo not shown) [Compound 1310]
E. coli ATCC25922 MIC: + (a “+” indicates that the compound has an MIC value of 16 micrograms/ml or less)

N=C(N)NCCCNCc1ccc(-n2cc3cc(-c4cc(C(=O)Nc5cc(F)cc(F)c5)cc(N5CCNCC5)c4)[nH]c3nc2=O)cc1 [Compound 978]
E. coli ATCC25922 MIC: + (a “+” indicates that the compound has an MIC value of 16 micrograms/ml or less)

NCCCN(CCCN)Cc1ccc(-n2cc3cc(-c4ccc(C(=O)NC5CN6CCC5CC6)cc4)[nH]c3nc2=O)cc1 (stereo not shown) [Compound 196]
MIC: < 16 µg/mL

NCCCNCc1ccc(-n2cc3cc[nH]c3nc2=O)cc1 [Compound 498]
MIC: > 16 µg/mL

N=C(N)NCCCNCc1ccc(-n2cc3cc(-c4cc(C=CCCN)cc(OC(F)(F)F)c4)[nH]c3nc2=O)cc1 [Compound 2045a]
E. coli ATCC25922 MIC: + (a “+” indicates that the compound has an MIC value of 16 micrograms/ml or less)

CNCc1ccc(-n2cc3cc(-c4ccc(S(=O)(=O)N(CCCn5ccc(C(F)(F)F)n5)C5CCNCC5)cc4)[nH]c3nc2=O)cc1 [Compound 1021]
MIC: > 16 µg/mL

N=C(N)NCCCNCc1ccc(-n2cc3cc(C4CCN(CCCCN)C4)[nH]c3nc2=O)cc1 (stereo not shown) [Compound 1437]
E. coli ATCC25922 MIC: + (a “+” indicates that the compound has an MIC value of 16 micrograms/ml or less)

NCc1ccc(-n2cc3cc(-c4cccc(OCCCO)c4)[nH]c3nc2=O)cc1 [Compound 1099]
MIC: > 16 µg/mL

N=C(N)NCCC(=O)NCc1ccc(-n2cc3cc(-c4ccc(C[C@H](N)CO)cc4)[nH]c3nc2=O)cc1 [Compound 1163]
MIC: < 16 µg/mL

CC1CN(C(=O)c2ccc(-c3cn4cc(-c5ccc(CNCCCNC(=N)N)cc5)c(=O)nc4[nH]3)cc2)CCN1 (stereo not shown) [Compound 822]
E. coli ATCC25922 MIC: + (a “+” indicates that the compound has an MIC value of 16 micrograms/ml or less)

NCCCNCc1ccc(-n2cc3cc(Cc4ccccc4)[nH]c3nc2=O)cc1 [Compound 621]
MIC: > 16 µg/mL

Cn1cc2cc(-c3ccc(F)cc3)[nH]c2nc1=O [Compound 580]
MIC: > 16 µg/mL

N=C(N)NCCCNCc1ccc(-n2cc3cc(-c4ccc(S(=O)(=O)NC5CCCNC5)cc4)[nH]c3nc2=O)cc1 (stereo not shown) [Compound 805]
E. coli ATCC25922 MIC: + (a “+” indicates that the compound has an MIC value of 16 micrograms/ml or less)

N=C(N)NCCCNCc1ccc(-n2cc3cc(-c4cc(CCCCN)cc(C(F)F)c4)[nH]c3nc2=O)cc1 [Compound 2087a]
E. coli ATCC25922 MIC: + (a “+” indicates that the compound has an MIC value of 16 micrograms/ml or less)

N=C(N)NCCCNC(=O)c1ccc(-n2cc3cc(-c4ccc(S(=O)(=O)N(Cc5cc(OC(F)(F)F)ccc5F)C5CCNCC5)cc4)[nH]c3nc2=O)cc1 [Compound 1090]
E. coli ATCC25922 MIC: + (a “+” indicates that the compound has an MIC value of 16 micrograms/ml or less)

CN(C)Cc1cc2cn(-c3ccc(CNCCCN)cc3)c(=O)nc2[nH]1 [Compound 884]
MIC: > 16 µg/mL

N=C(N)NCCCNCC(Cn1cc2cc(-c3ccc(S(=O)(=O)NC4CCNCC4)cc3)[nH]c2nc1=O)OCc1ccc(F)cc1 (stereo not shown) [Compound 1097]
E. coli ATCC25922 MIC: − (a “−” indicates that the compound has an MIC value greater than 16 micrograms/ml)

NCc1ccc(-n2cc3cc[nH]c3nc2=O)cc1 [Compound 142]
MIC: > 16 µg/mL

N=C(N)NCCCNCc1ccc(-c2cn3cc(-c4ccc(C(=O)N5CCN(c6ccc(F)cc6)CC5)cc4)[nH]c3nc2=O)cc1 [Compound 670]
MIC: > 16 µg/mL

COC(CN)COc1cccc(-c2cc3cn(-c4ccc(CNCCCNC(=N)N)cc4)c(=O)nc3[nH]2)c1 (stereo not shown) [Compound 1453]
E. coli ATCC25922 MIC: + (a “+” indicates that the compound has an MIC value of 16 micrograms/ml or less)

N=C(N)NCCCN(CCCN)Cc1ccc(-c2cn3cc(-c4ccc(Br)cc4)[nH]c3nc2=O)cc1 [Compound 640]
MIC: < 16 µg/mL

N=C(N)NCCCNCc1ccc(-n2cc3cc(-c4cc(CCCCN)ccc4Cl)[nH]c3nc2=O)cc1 [Compound 2073a]
E. coli ATCC25922 MIC: + (a “+” indicates that the compound has an MIC value of 16 micrograms/ml or less)

NCc1ccc(-n2cc3cc(-c4cccc(S(=O)(=O)N(CCn5ccnc5)C5CCNCC5)c4)[nH]c3nc2=O)cc1 [Compound 1157]
MIC: > 16 µg/mL

NCCCOc1cccc(-c2cc3cn(-c4ccc(CNCCCN=C(N)N)cc4)c(=O)nc3[nH]2)c1 [Compound 1179]
E. coli ATCC25922 MIC: + (a “+” indicates that the compound has an MIC value of 16 micrograms/ml or less)

Cn1c(CCCN(C2CCNCC2)S(=O)(=O)c2ccc(-c3cc4cn(-c5ccc(CNCCCNC(=N)N)cc5)c(=O)nc4[nH]3)cc2)nc2ccccc21 [Compound 841]
E. coli ATCC25922 MIC: + (a “+” indicates that the compound has an MIC value of 16 micrograms/ml or less)

NCCCNCc1ccc(-n2cc3cc(-c4cc(C(=O)Nc5ccc(F)cc5)cc(N5CCNCC5)c4)[nH]c3nc2=O)cc1 [Compound 760]
MIC: < 16 µg/mL

N=C(N)NCCCNCc1ccc(-n2cc3cc(-c4cc(OC(F)(F)F)cc(S(=O)(=O)CCCN)c4)[nH]c3nc2=O)cc1 [Compound 2052a]
E. coli ATCC25922 MIC: + (a “+” indicates that the compound has an MIC value of 16 micrograms/ml or less)

Cc1cc(CNc2cn3cc(-c4ccc(CNCCCN)cc4)c(=O)nc3[nH]2)no1 [Compound 679]
MIC: > 16 µg/mL

COc1ccc(CN(C2CCNCC2)S(=O)(=O)c2ccc(-c3cc4cn(-c5ccc(C(=O)NCCCNC(=N)N)cc5)c(=O)nc4[nH]3)cc2)cc1[N+](=O)[O-] [Compound 1114]
E. coli ATCC25922 MIC: + (a “+” indicates that the compound has an MIC value of 16 micrograms/ml or less)

O=c1nc2[nH]c(-c3ccc(F)cc3)cc2cn1C1CCNC1 (stereo not shown) [Compound 561]
MIC: > 16 µg/mL

N=C(N)NCCCNCc1ccc(-n2cc3cc(-c4cccc(CCCCN)c4)[nH]c3nc2=O)cc1 [Compound 1380]
E. coli ATCC25922 MIC: + (a “+” indicates that the compound has an MIC value of 16 micrograms/ml or less)

From US9193731B2, “Antimicrobial compounds and methods of making and using the same” (Melinta Therapeutics, Inc., priority 2009, dated 2015)
